One assay relates to HBV. As to the kind of experiment: HBV replication inhibition assay (BDNA assay) in HepG2.2.15 cells. In kind it is cell-based. The note with it: 6 days treatment, encapsidated HBV DNA in supernatant by branched DNA QuantiGene assay. The source says:
HBV replication inhibition by the compounds of this invention could be determined in cells infected or transfected with HBV, or cells with stably integrated HBV, such as HepG2.2.15 cells (Sells et al. 1987). In this example, HepG2.2.15 cells were maintained in cell culture medium containing 10% fetal bovine serum (FBS), Geneticin, L-glutamine, penicillin and streptomycin. HepG2.2.15 cells could be seeded in 96-well plates at a density of 40,000 cells/well and be treated with serially diluted compounds at a final DMSO concentration of 0.5% either alone or in combination by adding drugs in a checker box format. Cells were incubated with compounds for three days, after which medium was removed and fresh medium containing compounds was added to cells and incubated for another three days. At day 6, supernatant was removed and treated with DNase at 37° C. for 60 minutes, followed by enzyme inactivation at 75° C. for 15 minutes. Encapsidated HBV DNA was released from the virions and covalently linked HBV polymerase by incubating in lysis buffer (Affymetrix QS0010) containing 2.5 μg proteinase K at 50° C. for 40 minutes. HBV DNA was denatured by addition of 0.2 M NaOH and detected using a branched DNA (BDNA) QuantiGene assay kit according to manufacturer recommendation (Affymetrix). HBV DNA levels could also be quantified using qPCR, based on amplification of encapsidated HBV DNA extraction with QuickExtraction Solution (Epicentre Biotechnologies) and amplification of HBV DNA using HBV specific PCR probes that can hybridize to HBV DNA and a fluorescently labeled probe for quantitation. In addition, cell viability of HepG2.2.15 cells incubated with test compounds alone or in combination was determined by using CellTitre-Glo reagent according to the manufacturer protocol (Promega). The mean background signal from wells containing only culture medium was subtracted from all other samples, and percent inhibition at each compound concentration was calculated by normalizing to signals from HepG2.2.15 cells treated with 0.5% DMSO using equation E1. % inhibition=(DMSOave−Xi)/DMSOave×100% E1: where DMSOave is the mean signal calculated from the wells that were treated with DMSO control (0% inhibition control) and Xi is the signal measured from the individual wells. EC50 values, effective concentrations that achieved 50% inhibitory effect, were determined by non-linear fitting using Graphpad Prism software (San Diego, Calif.) and equation E2 Y=Y min+(Y max−Y min)/(1+10(Log EC50−X)×HillSlope) E2: […]
where Y represents percent inhibition values and X represents the logarithm of compound concentrations.
Selected compounds of the invention were assayed in the HBV replication assay (BDNA assay), as described above and a representative group of these active compounds is shown in Table 3. […] In Table 3, “A” represents 0.01<EC50<0.10; “B” represents 0.10≤EC50<0.50; and “C” represents 0.50≤EC50<1.0; (‘+’ indicates >50% activity at 10 μM).
`C[C@H]1Cc2[nH]nc(C3CCCO3)c2CN1C(=O)Nc1ccc(F)c(Br)c1` (single isomer, unassigned) [967 D2]: the 50% effective concentration (EC50) (as a rule, the midpoint of the concentration-response curve) was 100 to 500 nM.

The assay is the same for the next values; noted with them: Hepatitis B virus, HepG2.2.15, 144 h, 6 days treatment, encapsidated HBV DNA in supernatant by branched DNA QuantiGene assay.
Turning to `C=C(C)c1n[nH]c2c1CN(C(=O)Nc1cccc(Cl)c1)CC2` [Compound 336], the EC50 fell in the range of 10 to 100 nM.
In the case of `O=C(Nc1cccc(Cl)c1)N1CCc2[nH]nc(C3CCC(O)C3)c2C1` (stereo not drawn) [Compound 742, N-(3-chlorophenyl)-3-(3-hydroxycyclopentyl)-1,4,6,7-tetrahydropyrazolo[4,3-c] pyridine-5-carboxamide], the EC50 fell in the range of 100 to 500 nM.
The same measure, in the same setting: the figure for `O=C(Nc1cccc(Cl)c1)N1CCc2[nH]nc(C3CC=CC3)c2C1` [Compound 693, N-(3-chlorophenyl)-3-cyclopent-3-en-1-yl-1,4,6,7-tetrahydropyrazolo[4,3-c]pyridine-5-carboxamide] is 10 to 100 nM.
In the case of `CC1(c2n[nH]c3c2CN(C(=O)Nc2cccc(Cl)c2)CC3)CCC1` [Compound 694, N-(3-chlorophenyl)-3-(1-methylcyclobutyl)-1,4,6,7-tetrahydropyrazolo[4,3-c]pyridine-5-carboxamide], the 50% effective concentration (EC50) lay in the range of 10 to 100 nM.
The same measure, in the same setting: in the case of `O=C(Nc1ccc(F)c(F)c1)N1CCc2[nH]nc(C34CCCC3C4)c2C1` (stereo not drawn) [Compound 792] it was 100 to 500 nM; in that of `C[C@H]1Cc2[nH]nc(C3CCCO3)c2CN1C(=O)Nc1ccc(F)c(Cl)c1` (single isomer, unassigned) [965 D1], 10 to 100 nM; in that of `O=C(Nc1cccc(Cl)c1)N1CCc2[nH]nc(C3CC3)c2C1` [Compound 440, N-(3-chlorophenyl)-3-cyclopropyl-1,4,6,7-tetrahydropyrazolo[4,3-c]pyridine-5-carboxamide], 100 to 500 nM.
Still for that read-out and setting: the figure for `C[C@@H]1Cc2[nH]nc(C3CCCC3)c2CN1C(=O)Nc1ccc(F)c(C#N)c1` [930 R] is 10 to 100 nM.
The same measure, in the same setting: the figure for `Cc1cccc(NC(=O)N2Cc3c(C4CCCC4)n[nH]c3C[C@@H]2C)c1` [933 S] is 10 to 100 nM; for `C[C@H]1Cc2[nH]nc(C3CCCO3)c2CN1C(=O)Nc1ccc(F)c(C#N)c1` (single isomer, unassigned) [969 D1] it is 100 to 500 nM; for `O=C(Nc1ccc(F)c(Br)c1)N1CCc2[nH]nc(C3CCC3)c2C1` [Compound 667] it is 10 to 100 nM.
With `CC(C)c1n[nH]c2c1CN(C(=O)Nc1cccc(Cl)c1)CC2` [Compound 267], the EC50 was in the range of 100 to 500 nM.
With `C=C(C)c1n[nH]c2c1CN(C(=O)Nc1cccc(Br)c1F)CC2` [Compound 548], the EC50 was 10 to 100 nM.
Same read-out and setting: in the case of `O=C(Nc1cccc(Br)c1F)N1CCc2[nH]nc(C3CCC3)c2C1` [Compound 662] it was 10 to 100 nM; in that of `CC1(c2n[nH]c3c2CN(C(=O)Nc2cccc(Cl)c2)CC3)CC1` [Compound 441], 100 to 500 nM.
Turning to `O=C(Nc1cccc(Br)c1F)N1CCc2[nH]nc(C34CCCC3C4)c2C1` (stereo not drawn) [Compound 784], the EC50 is 10 to 100 nM.
In the case of `O=C(Nc1cccc(Cl)c1)N1CCc2[nH]nc(C34CCCC3C4)c2C1` (stereo not drawn) [Compound 546, 3-(1-bicyclo[3.1.0]hexanyl)-N-(3-chlorophenyl)-1,4,6,7-tetrahydropyrazolo[4,3-c]pyridine-5-carboxamide], the EC50 was in the range of 10 to 100 nM.
On to `Cc1cc(NC(=O)N2CCc3[nH]nc(C4CCC4)c3C2)ccc1F` [Compound 666], for which the EC50 fell in the range of 10 to 100 nM.
Turning to `C=C(C)c1n[nH]c2c1CN(C(=O)Nc1cccc(C)c1)CC2` [Compound 549, 3-isopropenyl-N-(m-tolyl)-1,4,6,7-tetrahydropyrazolo[4,3-c]pyridine-5-carboxamide], the EC50 lay within 100 to 500 nM.
For `Cc1cc(NC(=O)N2Cc3c(C4CCCC4)n[nH]c3C[C@H]2C)ccc1F` [931 R], the EC50 was in the range of 10 to 100 nM.
As to `CCCC(F)(F)c1n[nH]c2c1CN(C(=O)Nc1cccc(Cl)c1)CC2` [Compound 642, N-(3-chlorophenyl)-3-(1,1-difluorobutyl)-1,4,6,7-tetrahydropyrazolo[4,3-c]pyridine-5-carboxamide], the concentration giving a half-maximal response (EC50) was in the range of 10 to 100 nM.
For `C[C@@H]1Cc2[nH]nc(C3CCCC3)c2CN1C(=O)Nc1cccc(Br)c1` [927 R], the EC50 fell in the range of 10 to 100 nM.
On the same count and under the same terms, in the case of `O=C(Nc1cccc(Cl)c1)N1CCc2[nH]nc(C3=CCOCC3)c2C1` [Compound 274] it was 100 to 500 nM; in that of `Cc1cc(NC(=O)N2CCc3[nH]nc(C45CCCC4C5)c3C2)ccc1F` (stereo not drawn) [Compound 788], 10 to 100 nM; in that of `C=C(C)c1n[nH]c2c1CN(C(=O)Nc1ccnc(Cl)c1F)CC2` [Compound 547], 100 to 500 nM.
In the case of `O=C(Nc1ccc(F)c(Br)c1)N1CCc2[nH]nc(C34CCCC3C4)c2C1` (stereo not drawn) [Compound 789], the EC50 is 10 to 100 nM.
For `O=C(Nc1cccc(Cl)c1)N1CCc2[nH]nc(C3=CCCC3)c2C1` [Compound 338, N-(3-chlorophenyl)-3-(cyclopenten-1-yl)-1,4,6,7-tetrahydropyrazolo[4,3-c]pyridine-5-carboxamide], the EC50 lay within 10 to 100 nM.
On the same count and under the same terms, in the case of `O=C(Nc1cccc(Cl)c1)N1CCc2[nH]nc(C3=CC(F)CC3)c2C1` (stereo not drawn) [Compound 744, N-(3-chlorophenyl)-3-(3-fluorocyclopenten-1-yl)-1,4,6,7-tetrahydropyrazolo[4,3-c]pyridine-5-carboxamide] it was 10 to 100 nM.
As to `O=C(Nc1ccnc(Cl)c1F)N1CCc2[nH]nc(C34CCCC3C4)c2C1` (stereo not drawn) [Compound 782], the EC50 fell in the range of 10 to 100 nM.
The same measure, in the same setting: the figure for `C[C@H]1Cc2[nH]nc(C3CCCC3)c2CN1C(=O)Nc1ccc(F)c(Cl)c1` [932 S] is 10 to 100 nM; for `O=C(Nc1cccc(Cl)c1)N1CCc2[nH]nc(C3CCCO3)c2C1` (stereo not drawn) [Compound 861, N-(3-chlorophenyl)-3-tetrahydrofuran-2-yl-1,4,6,7-tetrahydropyrazolo[4,3-c]pyridine-5-carboxamide] it is 10 to 100 nM; for `O=C(Nc1cccc(Br)c1)N1CCc2[nH]nc(C3CCC3)c2C1` [Compound 663] it is 10 to 100 nM.
Same read-out and setting: in the case of `Cc1cc(NC(=O)N2Cc3c(C4CCCC4)n[nH]c3C[C@@H]2C)ccc1F` [931 S] it was 10 to 100 nM; in that of `CCCc1n[nH]c2c1CN(C(=O)Nc1cccc(Cl)c1)CC2` [Compound 644, N-(3-chlorophenyl)-3-propyl-1,4,6,7-tetrahydropyrazolo[4,3-c]pyridine-5-carboxamide], 100 to 500 nM; in that of `C[C@H]1Cc2[nH]nc(C3CCCC3)c2CN1C(=O)Nc1ccc(F)c(Br)c1` [928 S], 10 to 100 nM.
In the case of `O=C(Nc1ccc(F)c(F)c1)N1CCc2[nH]nc(C3CCC3)c2C1` [Compound 669], the concentration giving a half-maximal response (EC50) fell in the range of 100 to 500 nM.
Still for that read-out and setting: the figure for `O=C(Nc1cccc(Cl)c1)N1CCc2[nH]nc(C3CCOCC3)c2C1` [Compound 275] is 100 to 500 nM; for `CCC(C)(C)c1n[nH]c2c1CN(C(=O)Nc1cccc(Cl)c1)CC2` [Compound 604, N-(3-chlorophenyl)-3-(1,1-dimethylpropyl)-1,4,6,7-tetrahydropyrazolo [4,3-c]pyridine-5-carboxamide] it is 100 to 500 nM.
Consider `C[C@H]1Cc2[nH]nc(C3CCCC3)c2CN1C(=O)Nc1ccc(F)c(C#N)c1` [930 S], for which the EC50 lay within 10 to 100 nM.
Still for that read-out and setting: in the case of `O=C(Nc1ccnc(Cl)c1F)N1CCc2[nH]nc(C3CCC3)c2C1` [Compound 660] it was 100 to 500 nM.
With `C[C@H]1Cc2[nH]nc(C3CCCC3)c2CN1C(=O)Nc1cccc(Br)c1` [927 S], the EC50 lay in the range of 10 to 100 nM.
The same measure, in the same setting: the figure for `O=C(Nc1ccc(F)c(Cl)c1)N1CCc2[nH]nc(C3CCC3)c2C1` [Compound 665] is 10 to 100 nM; for `C[C@@H]1Cc2[nH]nc(C3CCCC3)c2CN1C(=O)Nc1ccc(F)c(Br)c1` [928 R] it is 10 to 100 nM; for `O=C(Nc1cccc(Cl)c1)N1CCc2[nH]nc(C3(C(F)(F)F)CC3)c2C1` [Compound 700, N-(3-chlorophenyl)-3-[1-(trifluoromethyl)cyclopropyl]-1,4,6,7-tetrahydropyrazolo[4,3-c]pyridine-5-carboxamide] it is 100 to 500 nM.
The same measure, in the same setting: in the case of `C[C@@H]1Cc2[nH]nc(C3CCCC3)c2CN1C(=O)Nc1ccnc(Br)c1F` [929 R] it was 10 to 100 nM.
As for `O=C(Nc1ccnc(Br)c1F)N1CCc2[nH]nc(C34CCCC3C4)c2C1` (stereo not drawn) [Compound 791], the EC50 was in the range of 10 to 100 nM.
`CC(C)(C)c1n[nH]c2c1CN(C(=O)Nc1cccc(Cl)c1)CC2` [Compound 515, 3-tert-butyl-N-(3-chlorophenyl)-1,4,6,7-tetrahydropyrazolo[4,3-c]pyridine-5-carboxamide]: the EC50 fell in the range of 100 to 500 nM.
